The test system of assay [1] is HCT116, HCT116/OxR, A2780, A2780/Cis cells. In words: 72 h cell viability (MTT) assay, all malignant cell models. Type of assay: cell-based, human. The protocol: (§1) Cells were seeded (3–4 ×10^3 cells/well) in 96-well plates in 100 µL and after 24 h recovery treated with 100 µL of compounds at the indicated concentrations in triplicates. After 72 h drug exposure cell viability was determined by 3-(4,5-dimethylthiazol-2-yl)-2,5-diphenyltetrazolium bromide (MTT)-vitality assay (EZ4U, Biomedica, Vienna, Austria) following the manufacturer’s recommendations, as published. Absorbance was measured at 450 nm (at 620 nm as reference) using the multimode plate reader Tecan Infinite 200 Pro (Zurich, Switzerland). Cytotoxicity was expressed as IC50 values calculated from full dose-response curves using the 4 parameter nonlinear regression model of GraphPad Prism 8 software (La Jolla, CA, USA).

The test system of the next assay is A2780/Cis cells. The experiment in a line: 72 h cell viability (MTT) assay. Type of assay: cell-based, human. The protocol:
as §1

A further assay deals with F331, BEC, HaCat cells. In words: 72 h cell viability (MTT) assay, non-malignant cell types. Type of assay: cell-based, human. The protocol:
as §1

For another assay, the system named is CT26 allografts. In words: In vivo anticancer activity, CT26 allografts. Details: species or system BALB/c mice. The protocol:
Eight-to nine-week-old female BALB/c mice bred in-house (originally Janvier) were kept in pathogen-free conditions and controlled environment with 12 h light-dark cycle. CT26 cells (5 × 10^5 in 50 µL serum-free RPMI medium) were injected subcutaneously (s.c.) into the right flank of the animals. […] Tumor growth was evaluated by daily recording of tumor size by caliper measurement. […] The reasons were primarily either enhanced tumor size or ulceration. For drug distribution (digestion and ICP-MS measurement details see below), histological and GSH determination experiments, mice were treated twice during one week and sacrificed 24 h after the last drug dosing. The animal experiments were performed according to the regulations of the Ethics Committee for the Care and Use of Laboratory Animals at the Medical University Vienna (proposal number BMBWF-V/3b 2020-0.380.502).

Molecules are shown by their SMILES.

As a reminder, the IC50 is the concentration needed to halve the response being measured.

Regarding `CCCCS(=N)(=O)CCC(NC(=O)[O][Pt]1([O]C(C)=O)[O]C(=O)C(=O)[O]1)C(=O)O.NC1CCCCC1N` (mixture of isomers) [BSO-OxOAc, (OC-6-34)-Acetato(((1 S)-3-(butylsulfonimidoyl)-1-carboxypropyl)carbamato)((1 R,2 R)-1,2-cyclohexanediamino)oxalatoplatinum(IV)], the “enhancement of IC50 values as compared to oxaliplatin” value in assay [1] is listed as 10- to 50 fold. In addition, in the assay with A2780/Cis cells (A2780/Cis, 72 h continuous exposure, read-out: IC50 value (95% confidence interval)), the 50% inhibitory concentration (IC50) was 28.5 µM. This compound also gave a resistance factor in the assay on A2780/Cis cells (IC50 A2780/Cis divided by IC50 A2780) of 1.4. In addition, the “activity against non-malignant cell types” value in the assay on F331, BEC, HaCat cells is “widely inactive”. For the same compound, the “tumor doubling time extended” value in the assay with CT26 allografts (CT26 allografts, twice a week for two weeks, equimolar doses) is recorded as 1.2 fold. Moreover, the “maximal tumor growth inhibition” value in the assay with CT26 allografts (day 11, CT26 allografts, twice a week for two weeks, equimolar to 9 mg/kg oxaliplatin i.v.) was 51.3%. Further, in the assay on CT26 allografts (first two weeks of treatment), the “tumor volumes as compared to solvent controls” value is listed as “significantly reduced tumor volumes”.

These data come from paper PMC9814792 (Communications Chemistry, 2022).
